In article PMC5073322, “Novel Natural Product-like Caged Xanthones Bearing a Carbamate Moiety Exhibit Antitumor Potency and Anti-Angiogenesis Activity In vivo” (Scientific Reports, 2016):

Tests used:
HUVECs [1] = test: Wound healing assay (hypoxia-induced migration); format: cell-based, human; settings: 0.01, 0.05 and 0.25 μM, 24 h
Procedure: (§1) GA was reported to inhibit tumour angiogenesis and may be a viable drug candidate for anti-angiogenesis and anticancer therapies. Therefore, the anti-angiogenesis activity of the caged xanthone derivative 8n was evaluated. Human umbilical vein endothelial cells (HUVECs) were used in all experiments. Cell migration is critical for endothelial cells to form blood vessels during angiogenesis, tumour growth and metastasis. […] Endothelial cell invasion is a critical part of angiogenesis; therefore, a transwell assay was performed to evaluate the ability of inactivated HUVECs to pass through the transwell membrane barrier in the presence of 8n.
(§2) Figure 8 8n had anti-angiogenesis activity in vitro and in vivo. (A) A wound-healing assay was used to evaluate the motility of HUVECs after treatment with 8n for 24 h. (B) Changes in cell motility were evaluated using a transwell assay of cell migration and invasion. (C) The effect of 8n on tube formation by HUVECs. HUVECs were incubated with 8n for 6 h and then transferred to Matrigel for 6 h. (D) Zebrafish embryos treated with blank control or 1, 10, or 50 μg/ml of 8n.
HUVECs were incubated in a 6-well plate until full confluence. […] Then, the wound edges were photographed under an inverted-phase microscope and measured.

HCT116 = test: MTT antiproliferative assay, HCT116; settings: read-out: IC50 HCT116; MTT, 72 h
HUVECs [2] = test: Tube formation assay; format: cell-based, human; settings: Matrigel
Procedure: as §1
as §2, with “HUVECs were incubated with 8n for 6 h and then transferred to Matrigel for 6 h.” left out
The tube formation assay was performed as previously reported with some modifications. A 48-well cell culture plate and the tips used were pre-chilled at −20 °C for 10 mins and then carefully coated with Matrigel (200 μL/well; Becton Dickinson, Bedford, MA, USA). Caution was taken to avoid bubbles. […]

VEGF = VEGF mRNA by real-time RT-PCR; format: cell-based; settings: hypoxia, VEGF/GAPDH
Procedure: Figure 9 (A) The caged compounds (50 μM) inhibited the Hsp90 ATPase activity in a HTRF-based inhibition assay. (B) The IC50 values for the inhibition of Hsp90 ATPase by 8n, 8o and GA as detected by the HTRF Transcreener ADP kit. The test compounds were diluted to obtain a range of concentrations and incubated with Hsp90 and ATP. The amount of ADP generated was detected. (C) Western blots of the Hsp90 client proteins after HepG2 cells were treated with the indicated concentrations of 8n for 24 h. (D) The mRNA expression of VEGF was determined by real-time quantitative reverse-transcriptase polymerase chain reaction (RT-PCR) and analysed by the delta Ct method. The bars represent the means with standard error of the mean (SEM) and the fold change in the VEGF/GAPDH ratio relative to the vehicle-treated group. The different significance levels are indicated as **P < 0.05.
The influence of 8n on the degradation of Hsp90 client proteins was monitored by WB analysis. HepG2 cells were treated with different concentrations of 8n for 24 h. […] HIF-1α, as a key modulator of angiogenesis and an important client protein of Hsp90, was also examined, and the expression of HIF-1α decreased after treatment with 8n.

HepG2 cells = test: Annexin V/PI apoptosis, flow cytometry; format: cell-based, human; settings: 48 h
Procedure: First, the influence of 8n on the cytoskeleton was evaluated using morphological observations. After treatment with 8n, the morphological features of tumour cells changed greatly, and the changed characteristics included the rounding-up of cells, rough membrane surfaces, and more spherical or ovoid cytoplasmic fragments (Fig. 6A). However, the control group, which lacked compound 8n, had good growth. Next, we examined whether the morphological changes were the result of apoptosis induced by compound 8n using DAPI staining and FACScan.
Figure 6 (A) Morphological changes in cancer cells and nuclei. (B) 8n induced apoptosis in HepG2 cells. […] The cells were then were stained with DAPI and observed by fluorescence microscopy. […] (D) The percentages of early apoptotic and total apoptotic cells were quantified using flow cytometry. *p < 0.05; **p < 0.01. […] The expression levels of Caspase-3, Cleaved Caspase-3, Bax, Bcl-2, PARP and cleaved PARP were measured by Western blotting. […]
HepG2 cells were grown on glass coverslips and fixed in 4% paraformaldehyde. […] 8n-induced apoptosis was assessed using a fluorescence microscope and the Annexin V-FITC apoptosis Detection Kit (Beyotime Biotechnology, Shanghai, China) according to the manufacturer’s instructions. […] Stained cells were analysed with a FACScan analyser (argon laser, Becton Dickinson, USA). All data were analysed by using the FlowJo software.

A549/taxol = test: MTT antiproliferative assay, Taxol-resistant A549; format: cell-based; settings: read-out: IC50 A549/taxol; MTT, 72 h; Taxol-resistant A549
Procedure: The inhibition of tumour cell growth was measured by a modified tetrazolium (MTT) salt assay, as previously described[39]. Cells were cultured in a 96-well plate and treated with culture medium alone or different concentrations of the compounds. The cells were incubated for 72 h, and then, the MTT assay reagent was added. After a 4 h incubation, the formazan product was quantitated at 570 nm. The IC50 values (the concentrations that gave rise to 50% inhibition of cell viability) were calculated using GraphPad Prism 6 using a variable slope (four parameters).

SMILES: CC(C)=CCC12OC(C)(C)C3CC(C=C4C(=O)c5c(OC(=O)N6CCC(N7CCCCC7)CC6)cccc5OC431)C2=O (stereo not shown) [Compound 8n]
- hypoxia-induced migration of HUVECs (HUVECs [1]): suppressed hypoxia-induced migration in a concentration-dependent manner
- IC50 (HCT116): 970 ± 120 nM
- tube-forming ability of HUVECs (HUVECs [2]): significantly impaired
- hypoxic induction of VEGF expression (mRNA) (VEGF): substantially repressed
- apoptotic cells (HepG2 cells; 0.3 μM): more than 11.89%
- apoptotic cells (HepG2 cells; 1 μM): > 46.3%
- IC50 (A549/taxol): 1900 ± 120 nM
